The values below come from patent US9617262B2, “Antibacterial cyclopental[C]pyrrole substituted 3,4-dihydro-1H-[1,8]naphthyridinones” (Janssen Sciences Ireland UC, priority 2011, dated 2017).

≈ marks a conversion by molar mass, not a printed value.

Experiment [1] addresses S. aureus ATCC 29213 FabI (Staphylococcus aureus (strain MRSA252), UniProt Q6GI75). The experiment in a line: Staphylococcus aureus FabI enzyme inhibition assay. Format: biochemical. The settings on record: pH 6.5, 30 minutes at room temperature.
The test system of experiment [2] is Escherichia coli ATCC 25922; reference strain. The experiment in a line: Antimicrobial spectrum, broth microdilution MIC. Format: cell-based. The settings on record: E. coli ATCC 25922. The method, then:
(§1) Minimum Inhibitory Concentrations (MICs) were determined in accordance with the Clinical and Laboratory Standards Institute (CLSI) methodology against aerobic bacteria (CLSI M07-A8) (see Clinical and Laboratory Standards Institute. 2009. Methods for dilution antimicrobial susceptibility tests for bacteria that grow aerobically. CLSI document M07-A8, Vol. 29, No. 2.) by the broth microdilution method with cation-adjusted Mueller-Hinton broth (CA-MHB) medium for the majority of organisms, except for Haemophilus influenza, where Haemophilis test medium (HTM) broth was used. Descriptions of the individual organisms can be found in the table. Where possible, ATCC standard strains were tested.
(§2) The inoculum density for the susceptibility testing was standardized to give a final inoculum of approximately 5×10^5 CFU/mL.
(§3) Stock solutions of the compounds were prepared in DMSO at concentrations of 1 mg/mL. Linezolid was prepared in DMSO at a concentration of 2 mg/mL. Stock solutions of all compounds were diluted into CA-MHB to give a range of two-fold dilutions, depending upon the sensitivity of the organism being tested.

Experiment [3] relates to Staphylococcus aureus ATCC 43300; reference strain MRSA. The experiment in a line: Antimicrobial spectrum, broth microdilution MIC. Format: cell-based. The settings on record: S. aureus ATCC 43300. The method, then: as §1, §2, §3
(In general: Broth dilution looks for growth in wells or tubes with falling amounts of substance.)

Experiment [4] deals with Escherichia coli Tol C mutant. The experiment in a line: Antimicrobial spectrum, broth microdilution MIC. Format: cell-based. The settings on record: E. coli tolC mutant. The method, then:
as §1, §2, §3

Experiment [5] has as its system Staphylococcus aureus NRS119; LZD-R. Briefly: Antimicrobial spectrum, broth microdilution MIC. Format: cell-based. As to conditions: S. aureus NRS119. As to the method: as §1, §2, §3
The subject of experiment [6] is Moraxella catarrhalis ATCC 8176; b-lactamase negative. Briefly: Antimicrobial spectrum, broth microdilution MIC. The settings on record: M. catarrhalis ATCC 8176. Type of experiment: cell-based. As to the method: as §1, §2, §3
The test system of experiment [7] is Haemophilus influenzae ATCC 49247; reference strain. The experiment in a line: Antimicrobial spectrum, broth microdilution MIC. Type of experiment: cell-based. The settings on record: H. influenza ATCC 49247. The method, then:
as §1, §2, §3

Experiment [8] relates to Staphylococcus aureus NRS121; LZD-R. Briefly: Antimicrobial spectrum, broth microdilution MIC. Format: cell-based. As to conditions: S. aureus NRS121. As to the method:
as §1, §2, §3

Experiment [9] has as its system Staphylococcus aureus ATCC 29213; reference strain MSSA. Briefly: Antimicrobial spectrum, broth microdilution MIC. Format: cell-based. As to conditions: S. aureus ATCC 29213. The method, then: as §1, §2, §3
For experiment [10], the system named is Staphylococcus aureus NRS120; LZD-R. The experiment in a line: Antimicrobial spectrum, broth microdilution MIC. Type of experiment: cell-based. The settings on record: S. aureus NRS120. The method, then:
as §1, §2, §3

As to `O=C1CCc2cc(/C=C/C(=O)N3C[C@@H]4CC(c5ccccc5)=C[C@@H]4C3)cnc2N1` (single isomer, unassigned) [compound 14], in experiment [1], the “FabI IC50” value was 0.40 µg/mL. In addition, the MIC90 in experiment [2] worked out at 4 µg/mL (≈ 10.4 µM); in experiment [3], 0.03 µg/mL (≈ 0.0778 µM); in experiment [4] it was 0.25 µg/mL (≈ 0.649 µM); in [5], 0.03 µg/mL (≈ 0.0778 µM); in experiment [6], 0.015 µg/mL (≈ 0.0389 µM); in experiment [7] it was 0.25 µg/mL (≈ 0.649 µM). Besides, the MIC90 in experiment [8], in experiment [9] and in experiment [10] was 0.03 µg/mL (≈ 0.0778 µM) throughout.
